Reference: US5672715A, “Herbicidal substituted 3-aryl-pyrazoles” (Monsanto Company, priority 1995, dated 1997)

Legend:
Type in all cases: in vivo
Wheat [1] = test: post-emergence herbicide test; conditions: for inhibition at 5043.82 g/ha: 4.5 lb/A
Outline: (§1)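 Each pan is moved to a spraying chamber when plants are two to three weeks old and sprayed by atomizer at 10 psig, delivering 1870 L/Ha containing about 0.4% by volume emulsifier. Greenhouse-grown from seed; percent inhibition scored.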

Common Chickweed [2] = test: post-emergence herbicide test; conditions: for inhibition at 200.072 g/ha: 0.1785 lb/A; for inhibition at 5043.82 g/ha: 4.5 lb/A
Outline: as §1

Velvetleaf = test: post-emergence herbicide test; conditions: for inhibition at 200.072 g/ha: 0.1785 lb/A; for inhibition at 5043.82 g/ha: 4.5 lb/A
Outline: as §1

Morning Glory = test: post-emergence herbicide test; conditions: for inhibition at 200.072 g/ha: 0.1785 lb/A; for inhibition at 5043.82 g/ha: 4.5 lb/A
Outline: as §1

Yellow Nutsedge = test: post-emergence herbicide test; conditions: Cyperus, read-out: % plant inhibition; for inhibition at 200.072 g/ha: 0.1785 lb/A; for inhibition at 1000.92 g/ha: 0.893 lb/A; for inhibition at 5043.82 g/ha: 4.5 lb/A
Outline: as §1

Yellow Foxtail = test: post-emergence herbicide test; conditions: Setaria, read-out: % plant inhibition; for inhibition at 200.072 g/ha: 0.1785 lb/A; for inhibition at 1000.92 g/ha: 0.893 lb/A; for inhibition at 5043.82 g/ha: 4.5 lb/A
Outline: as §1

Wheat [3] = test: pre-emergence herbicide test; conditions: Triticum aestivum, pre-emergence, read-out: % plant inhibition; for inhibition at 200.072 g/ha: 0.1785 lb/A; for inhibition at 1000.92 g/ha: 0.893 lb/A; for inhibition at 5043.82 g/ha: 4.5 lb/A
Outline: (§2)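 Known amounts of active ingredient went into the cover soil over seeds sown in pans, either before or after the layer was spread. An initial 1/4 inch overhead irrigation was given in some cases; otherwise pans were subirrigated. Rating was % inhibition at ~14 days.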

Common Chickweed [4] = test: pre-emergence herbicide test; conditions: pre-emergence, read-out: % plant inhibition; for inhibition at 200.072 g/ha: 0.1785 lb/A; for inhibition at 1000.92 g/ha: 0.893 lb/A; for inhibition at 5043.82 g/ha: 4.5 lb/A
Outline: as §2

Bedstraw Catchweed = test: pre-emergence herbicide test; conditions: Galium aparine, pre-emergence, read-out: % plant inhibition; for inhibition at 200.072 g/ha: 0.1785 lb/A; for inhibition at 1000.92 g/ha: 0.893 lb/A; for inhibition at 5043.82 g/ha: 4.5 lb/A
Outline: as §2

Blackgrass = test: pre-emergence herbicide test; conditions: Alopecurus myosuroides, pre-emergence, read-out: % plant inhibition; for inhibition at 200.072 g/ha: 0.1785 lb/A; for inhibition at 1000.92 g/ha: 0.893 lb/A; for inhibition at 5043.82 g/ha: 4.5 lb/A
Outline: as §2

[5] = Triticum aestivum, post-emergence, 0.1785 lb/A, read-out: % plant inhibition
[6] = Triticum aestivum, post-emergence, 0.893 lb/A, read-out: % plant inhibition
[7] = Triticum aestivum, post-emergence, read-out: % plant inhibition
[8] = post-emergence, read-out: % plant inhibition
[9] = post-emergence, 0.893 lb/A, read-out: % plant inhibition
[10] = Abutilon theophrasti, post-emergence, read-out: % plant inhibition
[11] = Abutilon theophrasti, post-emergence, 0.893 lb/A, read-out: % plant inhibition
[12] = Ipomoea, post-emergence, read-out: % plant inhibition
[13] = Ipomoea, post-emergence, 0.893 lb/A, read-out: % plant inhibition

`Cc1c(-c2cc(F)ccc2F)nn(C)c1C(F)(F)F` [Compound 1, 3-(2,5-Difluorophenyl)-1,4-dimethyl-5-(trifluoromethyl)-1H-pyrazole] showed an inhibition at 200.072 g/ha (Wheat [1]; [5]) of 0%, an inhibition at 1000.92 g/ha (Wheat [1]; [6]) of 0% and an inhibition at 5043.82 g/ha (Wheat [1]; [7]) of 10%. The inhibition at 200.072 g/ha (Common Chickweed [2]; [8]) was 0%, the inhibition at 1000.92 g/ha (Common Chickweed [2]; [9]) was 0% and the inhibition at 5043.82 g/ha (Common Chickweed [2]; [8]) was 40%. The inhibition at 200.072 g/ha (Velvetleaf; [10]) was 0%, the inhibition at 1000.92 g/ha (Velvetleaf; [11]) was 0% and the inhibition at 5043.82 g/ha (Velvetleaf; [10]) was 20%. It also gave an inhibition at 200.072 g/ha (Morning Glory; [12]) of 0%, an inhibition at 1000.92 g/ha (Morning Glory; [13]) of 0% and an inhibition at 5043.82 g/ha (Morning Glory; [12]) of 15%. It also gave an inhibition at 200.072 g/ha (Yellow Nutsedge) of 0%, an inhibition at 1000.92 g/ha (Yellow Nutsedge) of 0% and an inhibition at 5043.82 g/ha (Yellow Nutsedge) of 30%. The inhibition at 200.072 g/ha (Yellow Foxtail) was 0%, the inhibition at 1000.92 g/ha (Yellow Foxtail) was 0% and the inhibition at 5043.82 g/ha (Yellow Foxtail) was 50%. The inhibition at 200.072 g/ha (Wheat [3]) was 0%, the inhibition at 1000.92 g/ha (Wheat [3]) was 0% and the inhibition at 5043.82 g/ha (Wheat [3]) was 10%. It also gave an inhibition at 200.072 g/ha (Common Chickweed [4]) of 0%, an inhibition at 1000.92 g/ha (Common Chickweed [4]) of 0% and an inhibition at 5043.82 g/ha (Common Chickweed [4]) of 0%. The inhibition at 200.072 g/ha (Bedstraw Catchweed) was 0%, the inhibition at 1000.92 g/ha (Bedstraw Catchweed) was 0% and the inhibition at 5043.82 g/ha (Bedstraw Catchweed) was 0%. The inhibition at 200.072 g/ha (Blackgrass) was 0%, the inhibition at 1000.92 g/ha (Blackgrass) was 0% and the inhibition at 5043.82 g/ha (Blackgrass) was 15%.

With `Cc1c(-c2cc(F)c([N+](=O)[O-])cc2F)nn(C)c1C(F)(F)F` [Compound 35] the “% plant inhibition” value (Wheat [1]; 0.1785 lb/A) was 5%, the “% plant inhibition” value (Wheat [1]; 0.893 lb/A) was 15% and the inhibition at 7.95803 g/ha (Wheat [1]; Triticum aestivum, post-emergence, 0.0071 lb/A, read-out: % plant inhibition) was 0%. It also gave an inhibition at 40.0143 g/ha (Wheat [1]; Triticum aestivum, post-emergence, 0.0357 lb/A, read-out: % plant inhibition) of 0%, an inhibition at 1000.92 g/ha (Wheat [1]; [6]) of 20% and an inhibition at 5043.82 g/ha (Wheat [1]; [7]) of 25%. For the same molecule, the “% plant inhibition” value (Common Chickweed [2]; 0.893 lb/A) was 10%, the inhibition at 7.95803 g/ha (Common Chickweed [2]; post-emergence, 0.0071 lb/A, read-out: % plant inhibition) was 0% and the inhibition at 40.0143 g/ha (Common Chickweed [2]; post-emergence, 0.0357 lb/A, read-out: % plant inhibition) was 0%. The inhibition at 200.072 g/ha (Common Chickweed [2]; [8]) was 0%, the inhibition at 5043.82 g/ha (Common Chickweed [2]; [8]) was 35% and the “% plant inhibition” value (Velvetleaf; 0.893 lb/A) was 70%. It also gave an inhibition at 7.95803 g/ha (Velvetleaf; Abutilon theophrasti, post-emergence, 0.0071 lb/A, read-out: % plant inhibition) of 0%, an inhibition at 40.0143 g/ha (Velvetleaf; Abutilon theophrasti, post-emergence, 0.0357 lb/A, read-out: % plant inhibition) of 0% and an inhibition at 200.072 g/ha (Velvetleaf; [10]) of 45%. The inhibition at 1000.92 g/ha (Velvetleaf; [11]) was 75%, the inhibition at 5043.82 g/ha (Velvetleaf; [10]) was 100% and the “% plant inhibition” value (Morning Glory; 0.893 lb/A) was 100%. It also gave an inhibition at 7.95803 g/ha (Morning Glory; Ipomoea, post-emergence, 0.0071 lb/A, read-out: % plant inhibition) of 0%, an inhibition at 40.0143 g/ha (Morning Glory; Ipomoea, post-emergence, 0.0357 lb/A, read-out: % plant inhibition) of 0% and an inhibition (Morning Glory; Ipomoea, post-emergence, 0.1725 lb/A, read-out: % plant inhibition) of 65%. The inhibition at 200.072 g/ha (Morning Glory; [12]) was 75%, the inhibition at 1000.92 g/ha (Morning Glory; [13]) was 85% and the inhibition at 5043.82 g/ha (Morning Glory; [12]) was 95%. For the same molecule, the inhibition at 7.95803 g/ha (Yellow Nutsedge; 0.0071 lb/A) was 0%, the inhibition at 40.0143 g/ha (Yellow Nutsedge; 0.0357 lb/A) was 0% and the inhibition (Yellow Nutsedge; 0.1725 lb/A) was 0%. It also gave an inhibition at 200.072 g/ha (Yellow Nutsedge) of 0%, an inhibition at 1000.92 g/ha (Yellow Nutsedge) of 0% and an inhibition at 5043.82 g/ha (Yellow Nutsedge) of 0%. The inhibition at 7.95803 g/ha (Yellow Foxtail; 0.0071 lb/A) was 0%, the inhibition at 40.0143 g/ha (Yellow Foxtail; 0.0357 lb/A) was 0% and the inhibition at 200.072 g/ha (Yellow Foxtail) was 20%. For the same molecule, the inhibition at 5043.82 g/ha (Yellow Foxtail) was 65%, the inhibition at 200.072 g/ha (Wheat [3]) was 0% and the inhibition at 1000.92 g/ha (Wheat [3]) was 0%. It also gave an inhibition at 5043.82 g/ha (Wheat [3]) of 10%, an inhibition at 200.072 g/ha (Common Chickweed [4]) of 0% and an inhibition at 1000.92 g/ha (Common Chickweed [4]) of 35%. The inhibition at 5043.82 g/ha (Common Chickweed [4]) was 95%, the inhibition at 200.072 g/ha (Bedstraw Catchweed) was 30% and the inhibition at 1000.92 g/ha (Bedstraw Catchweed) was 100%. The inhibition at 5043.82 g/ha (Bedstraw Catchweed) was 100%, the inhibition at 200.072 g/ha (Blackgrass) was 0% and the inhibition at 1000.92 g/ha (Blackgrass) was 35%. The inhibition at 5043.82 g/ha (Blackgrass) was 80%.

`Cn1nc(-c2cc(F)ccc2F)c(C=O)c1C(F)(F)F` [Compound 34] showed an inhibition at 200.072 g/ha (Wheat [1]; [5]) of 0%, an inhibition at 1000.92 g/ha (Wheat [1]; [6]) of 0% and an inhibition at 5043.82 g/ha (Wheat [1]; [7]) of 10%. It also gave an inhibition at 200.072 g/ha (Common Chickweed [2]; [8]) of 0%, an inhibition at 1000.92 g/ha (Common Chickweed [2]; [9]) of 0% and an inhibition at 5043.82 g/ha (Common Chickweed [2]; [8]) of 0%. It also gave an inhibition at 200.072 g/ha (Velvetleaf; [10]) of 0%, an inhibition at 1000.92 g/ha (Velvetleaf; [11]) of 0% and an inhibition at 5043.82 g/ha (Velvetleaf; [10]) of 20%. It also gave an inhibition at 200.072 g/ha (Morning Glory; [12]) of 0%, an inhibition at 1000.92 g/ha (Morning Glory; [13]) of 0% and an inhibition at 5043.82 g/ha (Morning Glory; [12]) of 55%. It also gave an inhibition at 200.072 g/ha (Yellow Nutsedge) of 0%, an inhibition at 1000.92 g/ha (Yellow Nutsedge) of 0% and an inhibition at 5043.82 g/ha (Yellow Nutsedge) of 0%. For the same molecule, the inhibition at 200.072 g/ha (Yellow Foxtail) was 0%, the inhibition at 1000.92 g/ha (Yellow Foxtail) was 0% and the inhibition at 5043.82 g/ha (Yellow Foxtail) was 0%. The inhibition at 200.072 g/ha (Wheat [3]) was 0%, the inhibition at 1000.92 g/ha (Wheat [3]) was 0% and the inhibition at 5043.82 g/ha (Wheat [3]) was 5%. It also gave an inhibition at 200.072 g/ha (Common Chickweed [4]) of 0%, an inhibition at 1000.92 g/ha (Common Chickweed [4]) of 0% and an inhibition at 5043.82 g/ha (Common Chickweed [4]) of 0%. The inhibition at 200.072 g/ha (Bedstraw Catchweed) was 0%, the inhibition at 1000.92 g/ha (Bedstraw Catchweed) was 0% and the inhibition at 5043.82 g/ha (Bedstraw Catchweed) was 10%. It also gave an inhibition at 200.072 g/ha (Blackgrass) of 0%, an inhibition at 1000.92 g/ha (Blackgrass) of 0% and an inhibition at 5043.82 g/ha (Blackgrass) of 25%.
